Measurements published in US12077503B2, “Substituted cyclic amides and their use as herbicides” (FMC CORPORATION, priority 2015, dated 2024).

What was measured:
Type in all cases: in vivo
corn (Zea mays) = assay: Test A postemergence; details: Zea mays, post-emergence, 240 h
Summary of the method: (§1)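 Compounds were formulated in a non-phytotoxic solvent mixture with surfactant and applied as a preemergence directed soil spray after seeding, or sprayed postemergence over plants 2 to 10 cm tall at the one- to two-leaf stage. Evaluation after about 10 d compared treated with untreated controls, using a scale from 0 (no effect) to 100 (complete control).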

[1] = tested on: barnyardgrass (Echinochloa crus-galli); assay: Test A postemergence; details: Echinochloa crus-galli, post-emergence, 240 h
Summary of the method: as §1

[2] = tested on: blackgrass (Alopecurus myosuroides); assay: Test A postemergence; details: Alopecurus myosuroides, post-emergence, 240 h
Summary of the method: as §1

[3] = tested on: Galium (catchweed bedstraw, Galium aparine); assay: Test A postemergence; details: Galium, post-emergence, 240 h
Summary of the method: as §1

[4] = tested on: pigweed (Amaranthus retroflexus); assay: Test A postemergence; details: Amaranthus retroflexus, post-emergence, 240 h
Summary of the method: as §1

Kochia (Kochia scoparia) [5] = assay: Test A postemergence; details: Bassia scoparia, post-emergence, 240 h
Summary of the method: as §1

[6] = tested on: ryegrass, Italian (Italian ryegrass, Lolium multiflorum); assay: Test A postemergence; details: Lolium multiflorum, post-emergence, 240 h
Summary of the method: as §1

[7] = tested on: giant foxtail (Setaria faberii); assay: Test A postemergence; details: Setaria faberi, post-emergence, 240 h
Summary of the method: as §1

[8] = tested on: ragweed (common ragweed, Ambrosia elatior); assay: Test A postemergence; details: Ambrosia artemisiifolia, post-emergence, 240 h
Summary of the method: as §1

[9] = tested on: wheat (Triticum aestivum); assay: Test A postemergence; details: Triticum aestivum, post-emergence, 240 h
Summary of the method: as §1

[10] = tested on: barnyardgrass (Echinochloa crus-galli); assay: Test A preemergence; details: Echinochloa crus-galli, pre-emergence, 240 h, Preemergence
Summary of the method: as §1

[11] = tested on: pigweed (Amaranthus retroflexus); assay: Test A preemergence; details: Amaranthus retroflexus, pre-emergence, 240 h, 0 to 100 scale where 0 is no effect and 100 is complete control, read-out: Pigweed plant response rating
Kochia (Kochia scoparia) [12] = assay: Test A preemergence; details: Bassia scoparia, pre-emergence, 240 h, 0 to 100 scale where 0 is no effect and 100 is complete control, read-out: Kochia plant response rating
Summary of the method: as §1

[13] = tested on: ryegrass, Italian (Italian ryegrass, Lolium multiflorum); assay: Test A preemergence; details: Lolium multiflorum, pre-emergence, 240 h, 0 to 100 scale where 0 is no effect and 100 is complete control, read-out: Ryegrass, Italian plant response rating
Summary of the method: as §1

[14] = tested on: giant foxtail (Setaria faberii); assay: Test A preemergence; details: Setaria faberi, pre-emergence, 240 h, Preemergence
Summary of the method: as §1

[15] = tested on: ragweed (common ragweed, Ambrosia elatior); assay: Test A preemergence; details: Ambrosia artemisiifolia, pre-emergence, 240 h, 0 to 100 scale where 0 is no effect and 100 is complete control, read-out: Ragweed plant response rating
Summary of the method: as §1

[16] = tested on: barnyardgrass (Echinochloa crus-galli); assay: Test B flooded paddy test; details: Echinochloa crus-galli, 250 g ai/ha, Flood; 0 to 100 scale where 0 is no effect and 100 is complete control; read-out: Barnyardgrass plant response rating
Summary of the method: (§2)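 2-leaf plants; pots flooded 3 cm over soil; cpd added to paddy water; depth held; greenhouse 13–15 d; visual rating vs controls, 0 = no effect, 100 = complete control.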

rice (Oryra sativa) = assay: Test B flooded paddy test; details: Oryza sativa, 250 g ai/ha, Flood; 0 to 100 scale where 0 is no effect and 100 is complete control; read-out: Rice plant response rating
Summary of the method: as §2

[17] = tested on: ducksalad (Heteranthera limosa); assay: Test B flooded paddy test; details: Heteranthera limosa, 250 g ai/ha, Flood; 0 to 100 scale where 0 is no effect and 100 is complete control; read-out: Ducksalad plant response rating
Summary of the method: as §2

[18] = tested on: sedge, umbrella (small-flower umbrella sedge, Cyperus difformis); assay: Test B flooded paddy test; details: Cyperus difformis, 250 g ai/ha, Flood; 0 to 100 scale where 0 is no effect and 100 is complete control; read-out: Sedge, Umbrella plant response rating
Summary of the method: as §2

[19] = 125 g ai/ha, preemergence, approx. 10 d

## Cc1ccncc1NC(=O)[C@H]1C(=O)N(C)C[C@@H]1c1cccc(C(F)(F)F)c1 [Compound 1069]
Corn (Zea mays); 125 g ai/ha, postemergence, visual injury on 0 to 100 scale (0 no effect, 100 complete control), approx. 10 d, read-out: Corn plant response rating
  plant injury at 125 g/ha: 0%
Corn (Zea mays); Postemergence, 31 g ai/ha, visual injury after approx. 10 d, 0 to 100 scale, 0 no effect, 100 complete control
  Corn plant response rating (crop injury, 0 = no effect, 100 = complete kill) at 31 g/ha: 0%
[1]; 125 g ai/ha, postemergence, visual injury on 0 to 100 scale (0 no effect, 100 complete control), approx. 10 d, read-out: Barnyardgrass plant response rating
  pest or weed control at 125 g/ha: 0%
[1]; Postemergence, 31 g ai/ha, visual injury after approx. 10 d, 0 to 100 scale, 0 no effect, 100 complete control, read-out: Plant response rating, Barnyardgrass
  pest or weed control at 31 g/ha: 0%
[2]; 125 g ai/ha, postemergence, visual injury on 0 to 100 scale (0 no effect, 100 complete control), approx. 10 d, read-out: Blackgrass plant response rating
  pest or weed control at 125 g/ha: 0%
[2]; Postemergence, 31 g ai/ha, visual injury after approx. 10 d, 0 to 100 scale, 0 no effect, 100 complete control, read-out: Plant response rating, Blackgrass
  pest or weed control at 31 g/ha: 0%
[3]; 125 g ai/ha, postemergence, visual injury on 0 to 100 scale (0 no effect, 100 complete control), approx. 10 d, read-out: Galium plant response rating
  pest or weed control at 125 g/ha: 0%
[3]; Postemergence, 31 g ai/ha, visual injury after approx. 10 d, 0 to 100 scale, 0 no effect, 100 complete control, read-out: Plant response rating, Galium
  pest or weed control at 31 g/ha: 0%
[4]; 125 g ai/ha, postemergence, visual injury on 0 to 100 scale (0 no effect, 100 complete control), approx. 10 d, read-out: Pigweed plant response rating
  pest or weed control at 125 g/ha: 0%
[4]; Postemergence, 31 g ai/ha, visual injury after approx. 10 d, 0 to 100 scale, 0 no effect, 100 complete control, read-out: Plant response rating, Pigweed
  pest or weed control at 31 g/ha: 0%
Kochia (Kochia scoparia) [5]; 125 g ai/ha, postemergence, visual injury on 0 to 100 scale (0 no effect, 100 complete control), approx. 10 d, read-out: Kochia plant response rating
  pest or weed control at 125 g/ha: 0%
Kochia (Kochia scoparia) [5]; Postemergence, 31 g ai/ha, visual injury after approx. 10 d, 0 to 100 scale, 0 no effect, 100 complete control, read-out: Plant response rating, Kochia
  pest or weed control at 31 g/ha: 0%
[6]; 125 g ai/ha, postemergence, visual injury on 0 to 100 scale (0 no effect, 100 complete control), approx. 10 d, read-out: Ryegrass, Italian plant response rating
  pest or weed control at 125 g/ha: 0%
[6]; Postemergence, 31 g ai/ha, visual injury after approx. 10 d, 0 to 100 scale, 0 no effect, 100 complete control, read-out: Plant response rating, Ryegrass, Italian
  pest or weed control at 31 g/ha: 0%
[7]; 125 g ai/ha, postemergence, visual injury on 0 to 100 scale (0 no effect, 100 complete control), approx. 10 d, read-out: Foxtail, Giant plant response rating
  pest or weed control at 125 g/ha: 0%
[7]; Postemergence, 31 g ai/ha, visual injury after approx. 10 d, 0 to 100 scale, 0 no effect, 100 complete control, read-out: Plant response rating, Foxtail, Giant
  pest or weed control at 31 g/ha: 0%
[8]; 125 g ai/ha, postemergence, visual injury on 0 to 100 scale (0 no effect, 100 complete control), approx. 10 d, read-out: Ragweed plant response rating
  pest or weed control at 125 g/ha: 0%
[8]; Postemergence, 31 g ai/ha, visual injury after approx. 10 d, 0 to 100 scale, 0 no effect, 100 complete control, read-out: Plant response rating, Ragweed
  pest or weed control at 31 g/ha: 0%
[9]; 125 g ai/ha, postemergence, visual injury on 0 to 100 scale (0 no effect, 100 complete control), approx. 10 d, read-out: Wheat plant response rating
  plant injury at 125 g/ha: 0%
[9]; Postemergence, 31 g ai/ha, visual injury after approx. 10 d, 0 to 100 scale, 0 no effect, 100 complete control, read-out: Plant response rating, Wheat
  plant injury at 31 g/ha: 0%
[10]; 31 g ai/ha, 0 to 100 scale where 0 is no effect and 100 is complete control, read-out: Barnyardgrass plant response rating
  pest or weed control at 31 g/ha: 0%
[10]; 125 g ai/ha, visual injury rating after approximately 10 d, read-out: Barnyardgrass plant response rating (0 to 100 scale, 0 is no effect, 100 is complete control)
  pest or weed control at 125 g/ha: 0%
[11]; 31 g ai/ha, Preemergence
  pest or weed control at 31 g/ha: 0%
[11]; [19]
  pest or weed control at 125 g/ha: 0%
Kochia (Kochia scoparia) [12]; 31 g ai/ha, Preemergence
  pest or weed control at 31 g/ha: 0%
Kochia (Kochia scoparia) [12]; [19]
  pest or weed control at 125 g/ha: 0%
[13]; 31 g ai/ha, Preemergence
  pest or weed control at 31 g/ha: 0%
[13]; [19]
  pest or weed control at 125 g/ha: 0%
[14]; 31 g ai/ha, 0 to 100 scale where 0 is no effect and 100 is complete control, read-out: Foxtail, Giant plant response rating
  pest or weed control at 31 g/ha: 0%
[14]; 125 g ai/ha, visual injury rating after approximately 10 d, read-out: Foxtail, Giant plant response rating (0 to 100 scale, 0 is no effect, 100 is complete control)
  pest or weed control at 125 g/ha: 50%
[15]; 31 g ai/ha, Preemergence
  pest or weed control at 31 g/ha: 0%
[15]; [19]
  pest or weed control at 125 g/ha: 0%
[16]
  pest or weed control at 250 g/ha: 20%
Rice (Oryra sativa)
  pest or weed control at 250 g/ha: 0%
[17]
  pest or weed control at 250 g/ha: 35%
[18]
  pest or weed control at 250 g/ha: 0%
